Source: patent US8685924B2, “Preventives/remedies for stress urinary incontinence and method of screening the same” (Takeda Pharmaceutical Company Limited, priority 2004, dated 2014)

Legend:
Format in all cases: in vivo, rat
[1] = tested on: urethane-anesthetized female rats; experiment: Leak point pressure by abdominal wall-electrically stimulating method, serotonin 5-HT receptor agonists (Example 3); details: for leak point pressure after drug administration / leak point pressure increase / leak point pressure before drug administration: i.v., mean ± SEM; for leak point pressure before drug administration: baseline
Procedure: (§1) SD female rats (body weight 180-350 g) were anesthetized with urethane (Wako Pure Chemical Industries, Ltd.), and the spinal cord was transected at T8-9 level to eliminate the reflex voiding. In addition, the nerve to the iliococcygeus muscle/pubococcygeus muscle on the one side was transected. During operation, halothane (Takeda Pharmaceutical Company Limited) anesthesia was added when necessary. A catheter (PE-90, Clay Adams) was inserted into the bladder and secured with a ligature, and the incised part of each of the abdominal muscle and skin was closed with sutures. The abdominal skin near the diaphragm was incised at two left and right positions to newly expose the abdominal muscle. An Evans Blue dye (Merck) solution was injected into the bladder, and the bladder volume was adjusted to 0.2-0.3 ml. The bladder catheter was connected to a pressure transducer, and the signals of the transducer were sent to a computer via an amplifier (blood pressure amplification unit AP-641G; NIHON KOHDEN) and an analog-to-digital converter (BIOPAC; MP100), and recorded on a hard disc. The data were analyzed on a computer using software (BIOPAC; AcqKnowledge). The exposed abdominal muscle was electrostimulated using an electrostimulator (SEN-3301; NIHON KODEN) and an isolator (SS-202J; NIHON KODEN), and the presence or absence of incontinence from the meatus urethra was observed. The electrostimulation was applied at a voltage of 2.5-50 V, duration of 0.5 milisec, and frequency 50 Hz for 1 sec, thereby gradually increasing the intravesical pressure. The peak intravesical pressure during stimulation of the abdominal wall was measured and, of the trials with observed incontinence, the lowest peak intravesical pressure was defined as the leak point pressure. Serotonin 5-HT receptor agonist, WAY-161503 (5-HT2C receptor agonist), WAY-163909 (5-HT2C receptor agonist), DOI (5-HT2A/2B/2C receptor agonist), mCPP (5-HT2B/2C receptor partial agonist), eltoprazine (5-HT1A/1B/2C receptor partial agonist), 8-OH-DPAT (5-HT1A receptor agonist), sumatryptan (5-HT1B/1D receptor agonist) and BW723C86 (5-HT2B receptor agonist) were intravenously administered, and the leak point pressure was compared before and after the administration. DOI, mCPP and eltoprazine were dissolved in saline, and other drugs were dissolved in DMA/PEG400 (1:1), and they were intravenously administered at 1 ml/kg and 0.5 mg/kg, respectively. Depending on the experiment, RS-102221 (serotonin 5-HT2C receptor antagonist) or SB221284 (serotonin 5-HT2B/2C receptor antagonist) was intravenously administered 5 min before WAY-161503 or WAY-163909 administration, and an antagonistic effect against the WAY-161503 or WAY-163909-induced increment of the leak point pressure was examined. RS-102221 and SB221284 were both dissolved in DMA/PEG400 (1:1) and intravenously administered at 0.5 ml/kg.

[2] = tested on: urethane-anesthetized female rats; experiment: Antagonism of the leak point pressure increase by WAY-161503 / WAY-163909, abdominal wall-electrically stimulating method (Example 3); details: agonist 0.3 mg/kg, i.v., antagonist: solvent, mean ± SEM
Procedure: as §1

[3] = tested on: urethane-anesthetized female rats; experiment: Antagonism of the leak point pressure increase by WAY-161503 / WAY-163909, direct bladder compression method (Example 4); details: agonist 0.3 mg/kg, i.v., antagonist: solvent, mean ± SEM
Procedure: SD female rats (body weight 180-350 g) were anesthetized with urethane (Wako Pure Chemical Industries, Ltd.), and halothane (Takeda Pharmaceutical Company Limited) anesthesia was added when necessary during operation.
The spinal cord was transected at T8-9 level to eliminate the reflex voiding. The lower abdomen was incised in the median line, a catheter for intravesical pressure measurement (PE-90, Clay Adams) was inserted into the bladder and secured with a ligature, and the intravesical pressure was measured via a pressure transducer. Urine was emptized in advance by bilaterally pressing the bladder with two swabs, and a 0.1% Evans blue (Merck) solution (0.4 mL) was injected into the bladder. The bladder was gradually compressed bilaterally with two swabs, and the intravesical pressure upon saline leakage from the urethral orifice was measured and defined as a leak point pressure. The measurement of the leak point pressure was repeated, and the average value of the final five stable measures was taken as the value before drug administration. Thereafter, the drug was intravenously administered, the leak point pressure was measured again 20 min later, and the value after the drug administration was determined. DOI, mCPP and eltoprazine were dissolved in saline, and other drugs were dissolved in DMA/PEG400 (1:1), and intravenously administered at 1 ml/kg and 0.5 mg/kg, respectively. Depending on the experiment, RS-102221 or SB221284 (showing serotonin 5-HT2C receptor antagonist activity) was administered, 5 min later, WAY-161503 or WAY-163909 was administered, leak point pressure was measured 10 min later, and a competitive assay with the action of WAY-161503 or WAY-163909 was performed. RS-102221 and SB221284 were both dissolved in DMA/PEG400 (1:1), and intravenously administered at 0.5 ml/kg.

## O=C1Nc2cc(Cl)c(Cl)cc2N2CCNCC12 (centres unmarked) [WAY-161503]
[1]; 0.03 mg/kg
  leak point pressure after drug administration: 58.7 ± 6.8 cmH2O
  leak point pressure increase: 9.7 ± 2.9 cmH2O
[1]; 0.1 mg/kg
  leak point pressure after drug administration: 59.5 ± 4.9 cmH2O
  leak point pressure increase: 12.6 ± 2.8 cmH2O
[1]; 0.3 mg/kg
  leak point pressure after drug administration: 68.1 ± 6.8 cmH2O
  leak point pressure increase: 19.6 ± 4.4 cmH2O
[1]; 1 mg/kg
  leak point pressure after drug administration: 80.1 ± 2.7 cmH2O
  leak point pressure increase: 30.7 ± 3.5 cmH2O
[1]; dose group 0.03 mg/kg
  leak point pressure before drug administration: 49.0 ± 8.0 cmH2O
[1]; dose group 0.1 mg/kg
  leak point pressure before drug administration: 46.9 ± 4.6 cmH2O
[1]; dose group 0.3 mg/kg
  leak point pressure before drug administration: 48.5 ± 5.2 cmH2O
[1]; dose group 1 mg/kg
  leak point pressure before drug administration: 49.4 ± 1.4 cmH2O
[1]; intravenous administration
  dose at which a significant effect on the leak point pressure was afforded: not less than 0.03 mg/kg
  effect on leak point pressure: dose-dependently increased the leak point pressure
[2]
  leak point pressure after drug administration: 76.6 ± 5.4 cmH2O
  leak point pressure increase: 27.8 ± 2.8 cmH2O
[2]; baseline
  leak point pressure before drug administration: 48.7 ± 5.3 cmH2O
[3]
  leak point pressure after drug administration: 87.1 ± 4.3 cmH2O
  leak point pressure increase: 17.4 ± 1.9 cmH2O
[3]; baseline
  leak point pressure before drug administration: 69.7 ± 3.9 cmH2O
